pIC50: −log10 of the molar value.
Test system: 624824-186-R-J2-PDC multicell spheroids, viability
Test: Anticancer human tumor 624824-186-R-J2-PDC patient-derived colon adenocarcinoma cell line growth inhibition [PI3K]
Conditions: for viability, T/C: stronger effect = lower value
From the text: Combinatorial screen of targeted agents with the PI3K inhibitors inavolisib, alpelisib, duvelisib, and copanlisib in multi-cell type tumor spheroids
A high-throughput screen of multi-cell type tumor spheroids was designed to identify active combinations of targeted small molecules and PI3K pathway inhibitors. Complex spheroids include a stromal component modeled by human endothelial cells (HUVEC) and fibroblasts modeled by human mesenchymal stem cells (MSCs). The concentration ranges selected for each drug and investigational agent were based upon clinically achievable concentrations if the clinical Cmax of the agent was known.
Compounds. The drugs and investigational agents: inavolisib (NSC800729), alpelisib (NSC765974), duvelisib (NSC772469), copanlisib (NSC816437), ipatasertib (NSC767898), afuresertib (NSC778305), talazoparib (NSC767125), sapanisertib (NSC764658), selumetinib (NSC741078), tovorafenib (DAY101, NSC766906), vemurafenib (NSC761431), ravoxertinib (NSC781343), sotorasib (NSC818433), MRTX1133 (NSC 836407), abemaciclib (NSC 768073), palbociclib (NSC758247), venetoclax (NSC 766270), SY5609 (NSC837396), enzalutamide (NSC755605), and darolutamide (NSC825331), were obtained from the National Cancer Institute (NCI) Developmental Therapeutics Program Chemical Repository. The FDA-approved anticancer drug set is available from the NCI Developmental Therapeutics Program. […] The stock solutions were prepared in dimethyl sulfoxide (DMSO, Sigma-Aldrich, St. Louis, MO, cat. D2650) at 800-fold the tested concentration and stored at -70 degrees C prior to their use. All drugs and investigational agents were tested over a range starting from a high concentration at or near the clinical Cmax and decreasing in half-log increments. If the clinical Cmax for an agent had not been determined, the highest concentration tested was 10 microM.
Cell Culture. All cells were maintained in an incubator at 37 degrees C and 5% CO2 with 95% humidity. The PDC lines were cultured according to standard operating procedures established by the NCI PDMR (https://pdmr.cancer.gov/sops/default.htm). All PDCs were thawed and cultured in Matrigel-coated flasks prepared with a working solution of 1X Ham's F-12 nutrient mix, without supplementation (Invitrogen, Waltham, MA, cat. 11765054), 100 U/mL penicillin-streptomycin (Invitrogen, cat. 15140122), and 2.5% Matrigel (Corning Inc., Corning, NY, cat. 354248) for the first three passages. The 354836-022-R-J1-PDC, 475296-252-R-J1-PDC, and 997726-040-R-J2-PDC lines were cultured in 6A media, which includes advanced DMEM/F-12 (Thermo Fisher Scientific, cat. 12634028), 10 mM HEPES (Thermo Fisher Scientific, cat. 15630080), 1X GlutaMAX supplement (Thermo Fisher Scientific, cat. 35050061), 0.1 mg/mL primocin (InvivoGen, San Diego, CA, cat. ant-pm-2), 10% defined fetal bovine serum, heat inactivated (HyClone Laboratories Inc., Logan, UT, cat. SH30070.03HI), 50% L-WRN conditioned media (ATCC, cat. CRL-3276), 1.25 mM N-Acetyl-L-cysteine (Sigma-Aldrich, cat. A9165), 10 mM nicotinamide (Sigma-Aldrich, cat. N0636), 1X B-27 supplement (Thermo Fisher Scientific, cat. 17504044), 1X N-2 supplement (Thermo Fisher Scientific, cat. 17502048), and 10 microM Y-27632 dihydrochloride (Tocris Bioscience, Bristol, United Kingdom, cat. 1254). The 624824-186-R-J2-PDC line was cultured in 6C/Colon 1B media, which includes all 6A media components plus 50 ng/mL human EGF recombinant protein (Thermo Fisher Scientific, cat. PHG0311). […]

[1] = curve of first compound, second compound 0.0316 µM
[2] = curve of first compound, second compound 0.1 µM
[3] = curve of first compound, second compound 0.316 µM
[4] = curve of first compound, second compound 1 µM
[5] = second compound 0.0316 µM, first compound 0.0316 µM
[6] = second compound 0.0316 µM, first compound 0.1 µM
[7] = second compound 0.0316 µM, first compound 0.316 µM
[8] = second compound 0.0316 µM, first compound 1 µM
[9] = second compound 0.0316 µM, first compound 3.16 µM
[10] = second compound 0.0316 µM, first compound 10 µM
[11] = second compound 0.1 µM, first compound 0.0316 µM
[12] = second compound 0.1 µM, first compound 0.1 µM
[13] = second compound 0.1 µM, first compound 0.316 µM
[14] = second compound 0.1 µM, first compound 1 µM
[15] = second compound 0.1 µM, first compound 3.16 µM
[16] = second compound 0.1 µM, first compound 10 µM
[17] = second compound 0.316 µM, first compound 0.0316 µM
[18] = second compound 0.316 µM, first compound 0.1 µM
[19] = second compound 0.316 µM, first compound 0.316 µM
[20] = second compound 0.316 µM, first compound 1 µM
[21] = second compound 0.316 µM, first compound 3.16 µM
[22] = second compound 0.316 µM, first compound 10 µM
[23] = second compound 1 µM, first compound 0.0316 µM
[24] = second compound 1 µM, first compound 0.1 µM
[25] = second compound 1 µM, first compound 0.316 µM
[26] = second compound 1 µM, first compound 1 µM
[27] = second compound 1 µM, first compound 3.16 µM
[28] = second compound 1 µM, first compound 10 µM
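Note: spheroids exposed to agents for 7 days before viability read.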
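Throughout, for viability, T/C: 100% = DMSO vehicle treated spheroids.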

Compound: C[C@@H](NC(=O)c1ncnc(N)c1Cl)c1ncc(C(=O)Nc2cc(C(F)(F)F)c(Cl)cn2)s1 + CC(Nc1ccc2c(c1)OCCn1cc(N3C(=O)OCC3C(F)F)nc1-2)C(N)=O
- pIC50 (curve of first compound, second compound 0.00316 µM): < 5.00
- pIC50 (curve of first compound, second compound 0.01 µM): < 5.00
- pIC50 [1]: < 5.00
- pIC50 [2]: < 5.00
- pIC50 [3]: < 5.00
- pIC50 [4]: < 5.00
- viability, T/C (second compound 0.00316 µM, first compound 0.0316 µM): 108%
- viability, T/C (second compound 0.00316 µM, first compound 0.1 µM): 107%
- viability, T/C (second compound 0.00316 µM, first compound 0.316 µM): 73.1%
- viability, T/C (second compound 0.00316 µM, first compound 1 µM): 59.5%
- viability, T/C (second compound 0.00316 µM, first compound 3.16 µM): 78%
- viability, T/C (second compound 0.00316 µM, first compound 10 µM): 77.9%
- viability, T/C (second compound 0.01 µM, first compound 0.0316 µM): 110%
- viability, T/C (second compound 0.01 µM, first compound 0.1 µM): 86.4%
- viability, T/C (second compound 0.01 µM, first compound 0.316 µM): 80.7%
- viability, T/C (second compound 0.01 µM, first compound 1 µM): 72.8%
- viability, T/C (second compound 0.01 µM, first compound 3.16 µM): 78.8%
- viability, T/C (second compound 0.01 µM, first compound 10 µM): 77.2%
- viability, T/C [5]: 92.6%
- viability, T/C [6]: 90.5%
- viability, T/C [7]: 83%
- viability, T/C [8]: 63.5%
- viability, T/C [9]: 73.4%
- viability, T/C [10]: 78.2%
- viability, T/C [11]: 115%
- viability, T/C [12]: 99.2%
- viability, T/C [13]: 65.7%
- viability, T/C [14]: 69.4%
- viability, T/C [15]: 77.6%
- viability, T/C [16]: 68.7%
- viability, T/C [17]: 98%
- viability, T/C [18]: 77%
- viability, T/C [19]: 68.7%
- viability, T/C [20]: 68.5%
- viability, T/C [21]: 67.2%
- viability, T/C [22]: 56.6%
- viability, T/C [23]: 77%
- viability, T/C [24]: 93.7%
- viability, T/C [25]: 68.4%
- viability, T/C [26]: 63.2%
- viability, T/C [27]: 55.4%
- viability, T/C [28]: 53.1%

Compound: Cn1ncnc1[C@H]1c2n[nH]c(=O)c3cc(F)cc(c23)N[C@@H]1c1ccc(F)cc1
- viability, T/C (compound 0.000316 µM): 99.1% [middle of 4 runs]
- viability, T/C (compound 0.00316 µM): 90.5% [middle of 4 runs]
- viability, T/C (compound 0.0316 µM): 103% [middle of 4 runs]
- viability, T/C (compound 0.1 µM): 89.3% [middle of 4 runs]
- pIC50 (curve of compound): < 7.00

Compound: CC1(C)CCC(Nc2ncc(C(F)(F)F)c(-c3c[nH]c4c(P(C)(C)=O)c(C#N)ccc34)n2)CN1 (centres undefined) + Cc1nc(NC(=O)N2CCCC2C(N)=O)sc1-c1ccnc(C(C)(C)C(F)(F)F)c1
- pIC50 [1]: 5.37
- pIC50 [2]: 5.36
- pIC50 [3]: 5.36
- pIC50 [4]: 5.33
- pIC50 (curve of first compound, second compound 3.16 µM): 5.44
- pIC50 (curve of first compound, second compound 10 µM): 5.79
- viability, T/C [5]: 81.3%
- viability, T/C [6]: 99.4%
- viability, T/C [7]: 103%
- viability, T/C [8]: 121%
- viability, T/C [9]: 64.8%
- viability, T/C [10]: 7.6%
- viability, T/C [11]: 92.7%
- viability, T/C [12]: 92.9%
- viability, T/C [13]: 99.4%
- viability, T/C [14]: 108%
- viability, T/C [15]: 66.1%
- viability, T/C [16]: 7.74%
- viability, T/C [17]: 100%
- viability, T/C [18]: 81.8%
- viability, T/C [19]: 92.1%
- viability, T/C [20]: 115%
- viability, T/C [21]: 67.6%
- viability, T/C [22]: 6.46%
- viability, T/C [23]: 96%
- viability, T/C [24]: 93.4%
- viability, T/C [25]: 97.7%
- viability, T/C [26]: 93.6%
- viability, T/C [27]: 72%
- viability, T/C [28]: 5.53%
- viability, T/C (second compound 3.16 µM, first compound 0.0316 µM): 79%
- viability, T/C (second compound 3.16 µM, first compound 0.1 µM): 83.8%
- viability, T/C (second compound 3.16 µM, first compound 0.316 µM): 91.4%
- viability, T/C (second compound 3.16 µM, first compound 1 µM): 74%
- viability, T/C (second compound 3.16 µM, first compound 3.16 µM): 57.3%
- viability, T/C (second compound 3.16 µM, first compound 10 µM): 5.49%
- viability, T/C (second compound 10 µM, first compound 0.0316 µM): 77.8%
- viability, T/C (second compound 10 µM, first compound 0.1 µM): 73.8%
- viability, T/C (second compound 10 µM, first compound 0.316 µM): 62%
- viability, T/C (second compound 10 µM, first compound 1 µM): 54.5%
- viability, T/C (second compound 10 µM, first compound 3.16 µM): 45.2%
- viability, T/C (second compound 10 µM, first compound 10 µM): 6.69%
